This is an account of results in PubChem BioAssay (NCI).

The structures appear in SMILES notation.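 Results reflect a 48-hour exposure of cells in 96-well plates to compound at five concentrations. The concentration for 50% growth inhibition is given as GI50. TGI denotes the concentration required for complete inhibition of growth.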 Bounds are passed on as bounds.

Among the test systems are ACHN renal; DU-145 prostate; LOX IMVI melanoma; MOLT-4 leukemia; NCI-H460 lung; NCI-H522 lung; OVCAR-5 ovarian; PC-3 prostate; RXF 393 renal; SF-295 CNS.
Experiment in all cases: NCI anticancer screen, dose series, 48 h

For the molecule `CC(=O)OC1COC(Oc2c(C)c3c4c(c2O)[C@@H](C)CC[C@@H]4[C@@H](C)C[C@H]3C=C(C)C)C(O)C1O` (stereo not given in full), the GI50 was 18.5 µM with ACHN renal; 13.7 µM with DU-145 prostate; 19.1 µM in the assay with LOX IMVI melanoma; 2.24 µM in the assay with MOLT-4 leukemia; 16.2 µM in the assay with NCI-H460 lung; 30.5 µM in the assay with NCI-H522 lung. Moreover, the GI50 with OVCAR-5 ovarian was 18.1 µM; in the assay on PC-3 prostate it was 14.4 µM; with RXF 393 renal, 19.8 µM; in the assay on SF-295 CNS it was 17.9 µM. Also, the TGI with ACHN renal is 36.8 µM; with DU-145 prostate, 30.7 µM; in the assay on LOX IMVI melanoma it was 40 µM; in the assay with MOLT-4 leukemia, 22.5 µM; with NCI-H460 lung it was 52.2 µM; in the assay with NCI-H522 lung, over 100 µM. Also, the TGI came to 37.3 µM in the assay with OVCAR-5 ovarian, 31.1 µM with PC-3 prostate, 42.3 µM with RXF 393 renal and 35.3 µM with SF-295 CNS.
On to `CC1(C)N=C(N)N=C(N)N1c1ccc(OCCCCNC(=O)Nc2cccc(S(=O)(=O)F)c2)c(Cl)c1`, for which the GI50 was 22.3 µM in the assay with ACHN renal; 3.83 µM in the assay with DU-145 prostate; 0.491 µM in the assay on LOX IMVI melanoma; 4.08 µM with MOLT-4 leukemia; 0.377 µM in the assay with NCI-H460 lung; 1.83 µM in the assay on NCI-H522 lung. Besides, the GI50 in the assay with OVCAR-5 ovarian was 2.26 µM; in the assay with PC-3 prostate it was 0.0995 µM; with RXF 393 renal it was 0.735 µM; in the assay with SF-295 CNS, 5.59 µM. Besides, the TGI in the assay with ACHN renal was over 100 µM; with DU-145 prostate, over 100 µM; in the assay with LOX IMVI melanoma, over 100 µM; in the assay on MOLT-4 leukemia, over 100 µM; with NCI-H460 lung, 25.3 µM; in the assay on NCI-H522 lung, 69.7 µM. In addition, the TGI with OVCAR-5 ovarian, in the assay with PC-3 prostate, in the assay with RXF 393 renal and in the assay with SF-295 CNS was over 100 µM throughout.
Turning to `NCC(Cc1ccccc1)P(=O)(O)O` (stereo not given), the TGI in the assay with ACHN renal, in the assay on DU-145 prostate, with LOX IMVI melanoma, in the assay with MOLT-4 leukemia, with NCI-H460 lung and with NCI-H522 lung was over 100 µM throughout. Moreover, the TGI with OVCAR-5 ovarian, in the assay with PC-3 prostate, in the assay with RXF 393 renal and in the assay on SF-295 CNS was over 100 µM in each case.
In the case of `CCOC(=O)n1c2ccccc2c(=O)n1CCO`, the TGI with ACHN renal, with DU-145 prostate, in the assay on MOLT-4 leukemia, with NCI-H460 lung, with NCI-H522 lung and with OVCAR-5 ovarian was over 100 µM in each case. In addition, the TGI in the assay with PC-3 prostate, in the assay on RXF 393 renal and in the assay on SF-295 CNS was over 100 µM in each case.
Take `O=C(Nc1cccc(-n2cc(-c3ccncc3)c(-c3ccc(O)c(Cl)c3)n2)c1)Nc1ccc(Cl)c(Cl)c1`: the GI50 with ACHN renal is 2.02 µM; with DU-145 prostate, 2.39 µM; with LOX IMVI melanoma, 1.38 µM; in the assay with MOLT-4 leukemia, 1.43 µM; in the assay on NCI-H460 lung, 2.22 µM; in the assay on NCI-H522 lung it was 1.3 µM. The GI50 in the assay on OVCAR-5 ovarian is 3.26 µM; with PC-3 prostate it was 2.07 µM; in the assay with SF-295 CNS, 2.29 µM. For the same molecule, the TGI in the assay on ACHN renal was 7.81 µM; with DU-145 prostate, 12.1 µM; in the assay on LOX IMVI melanoma, 5.06 µM; in the assay with MOLT-4 leukemia it was 4.52 µM; in the assay on NCI-H460 lung it was 12.4 µM; in the assay on NCI-H522 lung, 3.76 µM. Also, the TGI amounted to 55.9 µM with OVCAR-5 ovarian, 7.45 µM in the assay with PC-3 prostate and 7.27 µM in the assay with SF-295 CNS.
As for `COc1ccc(C(=O)/C=C/c2ccc(OCc3ccccc3)c(OC)c2)cc1OC`, the GI50 is 4.31 µM in the assay with ACHN renal; 2.76 µM in the assay on DU-145 prostate; 2.84 µM in the assay with LOX IMVI melanoma; 3.65 µM in the assay on MOLT-4 leukemia; 2.93 µM in the assay on NCI-H460 lung; 2.34 µM with NCI-H522 lung. In addition, the GI50 in the assay with OVCAR-5 ovarian is 3.55 µM; in the assay on PC-3 prostate, 5.11 µM; in the assay with RXF 393 renal, 2.32 µM. In addition, the TGI in the assay with ACHN renal is over 100 µM; in the assay on DU-145 prostate, 8.1 µM; with LOX IMVI melanoma, 24.1 µM; with MOLT-4 leukemia it was over 100 µM; in the assay with NCI-H460 lung it was 14.4 µM; with NCI-H522 lung, 6.54 µM. Moreover, the TGI is over 100 µM in the assay on OVCAR-5 ovarian, over 100 µM in the assay with PC-3 prostate and 5.9 µM in the assay with RXF 393 renal.
Regarding `Cc1ccc(NC(=O)c2ccc(NC3=C(Cl)C(=O)N(Cc4ccccc4)C3=O)cc2)cc1Cl`, the GI50 was 12.6 µM with ACHN renal; 0.624 µM in the assay on DU-145 prostate; 3 µM with LOX IMVI melanoma; 2.35 µM in the assay on MOLT-4 leukemia; 10.3 µM in the assay on NCI-H460 lung; 3.73 µM in the assay on NCI-H522 lung. The GI50 is 0.774 µM with OVCAR-5 ovarian, 12.5 µM in the assay with PC-3 prostate and 19.9 µM in the assay with SF-295 CNS. The TGI is 25.1 µM in the assay on ACHN renal; 7.73 µM in the assay with DU-145 prostate; 14 µM with LOX IMVI melanoma; 15.1 µM in the assay with MOLT-4 leukemia; 27 µM with NCI-H460 lung; 20.5 µM in the assay with NCI-H522 lung. Further, the TGI is 10.2 µM in the assay on OVCAR-5 ovarian, 25.1 µM in the assay on PC-3 prostate and over 100 µM in the assay on SF-295 CNS.
Regarding `Nc1n[nH]c2ccc([C@@H]3Nc4c(F)cc5[nH]ncc5c4[C@H]4C5CCC(C5)[C@@H]34)cc12` (stereo not given in full), the GI50 in the assay with ACHN renal is 0.912 µM; in the assay on DU-145 prostate, 0.419 µM; in the assay on LOX IMVI melanoma, 0.539 µM; with MOLT-4 leukemia, 0.439 µM; in the assay on NCI-H460 lung, 0.352 µM; in the assay on NCI-H522 lung, 0.102 µM. Moreover, the GI50 is 0.612 µM in the assay with OVCAR-5 ovarian, 0.331 µM in the assay with PC-3 prostate and 0.11 µM in the assay on SF-295 CNS. Besides, the TGI in the assay on ACHN renal is over 64.7 µM; in the assay with DU-145 prostate, over 46.2 µM; in the assay on LOX IMVI melanoma, 23.9 µM; in the assay on MOLT-4 leukemia it was over 45.5 µM; in the assay on NCI-H460 lung, over 31.9 µM; in the assay with NCI-H522 lung, 2.17 µM. In addition, the TGI in the assay with OVCAR-5 ovarian is over 55.7 µM; in the assay on PC-3 prostate, over 46.2 µM; in the assay with SF-295 CNS it was 18.4 µM.
Consider `CC(C)c1cc(C(C)C)c(Cl)c(Cl)c1O` (tested in a mixture with another compound), for which the TGI is 57.6 µM in the assay on ACHN renal; over 100 µM in the assay with DU-145 prostate; over 100 µM with LOX IMVI melanoma; over 100 µM with NCI-H460 lung; 35.8 µM with NCI-H522 lung; over 100 µM in the assay on OVCAR-5 ovarian. Further, the TGI with PC-3 prostate is 40.7 µM; in the assay on RXF 393 renal, 32.5 µM; in the assay with SF-295 CNS it was 40.9 µM.
